Experimental data taken from US20250127913A1, “BIFUNCTIONAL FOLATE RECEPTOR BINDING COMPOUNDS” (LYCIA THERAPEUTICS, INC., priority 2021, published 2025).

Tests used:
[1] = test system: THP-1 cells; assay: Compound mediated uptake of TNFα-pHrodo in THP-1 cells (flow cytometry); format: cell-based; parameters: key to Uptake in THP1 cells (run) 2 / Uptake in THP1 cells (run) 3 / Uptake in THP1 cells (run) 4: + = ΔMFI less than that of I-17; ++ = ΔMFI ≈ to that of I-17; +++ = ΔMFI greater than that of I-17; settings: ΔMFI compared with I-17, uptake at 10 μM
Experimental: THP-1 cells, a monocytic leukemia cell line that endogenously express folate receptor beta, were used as a model system to measure example compound stimulated uptake of in-house produced TNFα conjugated to the pH sensitive fluorescent dye pHrodo green (ThermoFisher Scientific #P35369).
THP-1 cells were maintained in RPMI (Gibco #61870143) with 10% v/v FBS (VWR #89510-188) with 2 mM L-alanyl-L-glutamine dipeptide, 100 units/ml penicillin and 100 μg/ml streptomycin (Gibco #15140148). Cells were pelleted, resuspended in folate-free RPMI (Gibco #27016021) and seeded at 50,000 cells per well of a 96 well plate. Example compound was added to each well as a log 2 dilution series ranging from 20 μM to 125 nM final concentration. Cells were incubated for 24 hrs and washed/resuspended in phosphate buffered saline (pH 7.4) with 1% w/v BSA. Uptake was measured using a Novocyte Advanteon Flow Cytometer (Agilent Technologies) with the […] and FITC detection configuration.

[2] = target: FOLR2 (Homo sapiens (Human), UniProt P14207); assay: SPR binding kinetics of compounds to folate receptor (FOLR2 immobilized on CM5 chip)
Experimental: A Biacore 8K+ was used to measure the association and dissociation rates of example compounds to FOLR2 (Acro Biosystems, Cat: F02-H5223-100 μg). Briefly, FOLR2 was reconstituted according to the manufacture's instructions to 200 μg/mL. Both the active and reference surfaces of a Cytiva CM5 Series S Sensor Chip were activated with a 1:1 mixture of 400 mM EDC and 100 mM NHS for 420 s at 10 μL/min. 25 μg/mL FOLR2 diluted in Sodium Acetate pH 5.5 was injected on the active channel (Flow Cell 2) for 420 s at 10p/min. Both the reference and active surfaces were then capped with 1M ethanolamine, pH 8.5 for 420 s, achieving an immobilization level of ˜4200 RU. Example compounds were serially diluted 1:1 in running buffer (10 mM HEPES, 150 mM NaCl, 0.05% T20, pH 7.5, 2% DMSO) from 100 nM to 3.125 nM and flowed over the active and reference surfaces for 120 s, and then allowed to dissociate in running buffer for 600 s, at 30 uL/min. The FOLR2 immobilized active surface and the reference surface were regenerated with a 30 s pulse of Sodium Acetate pH 5.5 at 30 μL/min. Sensorgrams were solvent corrected, double-referenced, and the data fitted and analyzed in Biacore Insight Evaluation Software Version 3.0.11.15423.

[3] = test system: TNFα trimer complex to folate receptor (FOLR2); assay: SPR co-engagement of compound-TNFα trimer complex to folate receptor; settings: TNFα + 10 nM compound binding FOLR2
Experimental: The active (Flow cell 2) surfaces of a Cytiva CM5 Series S Sensor Chip functionalized with FOLR2 as described in Example 58. Example compounds were diluted to 10 nM with 50 and 100 nM TNFα single chain trimer or 150 nM and 300 nM TNFα native monomer in running buffer (10 mM HEPES, 150 mM NaCl, 0.05% T20, pH 7.5, 2% DMSO), allowed to incubate for 5 hours at 25° C. and then flowed over the active and reference surfaces for 110 s, and then allowed to dissociate in running buffer for 600 s, at a flow rate of 30 μL/min. The FOLR2 immobilized active surface and the reference surface were regenerated with a 30 s pulse of 4M MgCl2 at 30 μL/min then allowed to equilibrate 240 s. Sensorgrams were solvent corrected, double-referenced, and the data fitted and analyzed in Biacore Insight Evaluation Software Version 3.0.11.15423.

[4] = target: TNFα trimer (Homo sapiens, UniProt P01375); assay: SPR binding kinetics of compounds to TNFα trimer; settings: class symbols
Experimental: Streptavidin 100 μg/mL Streptavidin (Invitrogen Cat #: 434302) diluted in 10 mM sodium acetate, pH 4.5) was immobilized to both the reference and active surfaces as described in Example 51. The surfaces were conditioned with three injections of running Buffer (10 mM HEPES, 150 mMNaCl, 0.05% T20, pH 7.5, 2% DMSO) at a flow rate of 10 μL/min, Contact time: 60 s. Flow rate: 10 μL/min. The active surface was treated with biotinylated linked TNFα trimer 20 μg/mL diluted in running buffer at a flow rate of 5 μL/min contact time: 600 s, yielding a final response of ˜3000 RU. Example compounds were then serially diluted 1:1 in running buffer (10 mM HEPES, 150 mM NaCl, 0.05% T20, pH 7.5, 2% DMSO) from 30 uM to 937.5 nM and flowed over the active and reference surfaces from lowest concentration to greatest concentration in the single-cycle kinetics format, and then allowed to dissociate in running buffer for 7200 s, at 30 μL/min. Sensorgrams were solvent corrected, double-referenced, and the data fitted and analyzed in Biacore Insight Evaluation Software Version 3.0.11.15423.

Sequence of FOLR2 (P14207 17-255): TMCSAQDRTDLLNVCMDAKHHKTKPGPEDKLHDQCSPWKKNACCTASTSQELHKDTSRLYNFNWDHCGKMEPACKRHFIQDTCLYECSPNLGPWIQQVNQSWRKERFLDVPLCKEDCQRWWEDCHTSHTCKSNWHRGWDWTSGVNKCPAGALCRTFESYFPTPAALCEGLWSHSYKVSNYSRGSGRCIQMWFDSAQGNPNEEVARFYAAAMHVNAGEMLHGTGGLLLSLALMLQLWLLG
Sequence of TNFα trimer (P01375 77-233 limits assumed): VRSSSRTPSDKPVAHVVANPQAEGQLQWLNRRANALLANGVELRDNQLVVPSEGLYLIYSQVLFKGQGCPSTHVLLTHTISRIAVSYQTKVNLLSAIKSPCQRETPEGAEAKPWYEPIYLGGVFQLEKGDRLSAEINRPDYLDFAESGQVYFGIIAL

Kd [2] [nM] | co-engagement / complex formation observed on SPR [3] | Kd [4] [nM] | SMILES | Uptake in THP1 cells (run) 3 [1] | Uptake in THP1 cells (run) 4 [1] | Uptake in THP1 cells (run) 2 [1]
0.3 | complex formation observed | < 100 | Cc1nc2cc(F)c(-c3cnc(OCCCCCn4cc(COCCNC(=O)CC[C@H](NC(=O)c5ccc(NCc6cnc7nc(N)nc(O)c7n6)cc5)C(=O)O)nn4)nc3)nc2c(N[C@H](C)c2cc(C#N)ccc2F)c1Cl [Compound I-15, N2-(4-(((2-amino-4-hydroxypteridin-6-yl)methyl)amino)benzoyl)-N5-(2-((1-(5-((5-(7-chloro-8-((I-1-(5-cyano-2-fluorophenyl)ethyl)amino)-3-fluoro-6-methyl-1,5-naphthyridin-2-yl)pyrimidin-2-yl)oxy)pentyl)-1H-1,2,3-triazol 4-yl)methoxy)ethyl)-L-glutamine] | +++ | ++ | –
0.4 | complex formation observed | < 100 | Cc1nc2cc(F)c(-c3cnc(OCCCCCn4cc(COCCOCCOCCOCCOCCOCCNC(=O)CC[C@H](NC(=O)c5ccc(NCc6cnc7nc(N)nc(O)c7n6)cc5)C(=O)O)nn4)nc3)nc2c(N[C@H](C)c2cc(C#N)ccc2F)c1Cl [Compound I-18, (S)-24-(4-(((2-amino-4-hydroxypteridin-6-yl)methyl)amino)benzamido)-1-(1-(5-((5-(7-chloro-8-((I-1-(5-cyano-2-fluorophenyl)ethyl)amino)-3-fluoro-6-methyl-1,5-naphthyridin-2-yl)pyrimidin-2-yl)oxy)pentyl)-1H-1,2,3-triazol-4-yl)-21-oxo-2,5,8,11,14,17-hexaoxa-20-azapentacosan-25-oic acid] | ++ | +++ | +++
0.2 | complex formation observed | < 100 | Cc1nc2cc(F)c(-c3cnc(OCCCCCn4cc(CNC(=O)CC[C@H](NC(=O)c5ccc(NCc6cnc7nc(N)nc(O)c7n6)cc5)C(=O)O)nn4)nc3)nc2c(N[C@H](C)c2cc(C#N)ccc2F)c1Cl [Compound I-14, N2-(4-(((2-amino-4-hydroxypteridin-6-yl)methyl)amino)benzoyl)-N5-((1-(5-((5-(7-chloro-8-(((R)-1-(5-cyano-2-fluorophenyl)ethyl)amino)-3-fluoro-6-methyl-1,5-naphthyridin-2-yl)pyrimidin-2-yl)oxy)pentyl)-1H-1,2,3-triazol-4-yl)methyl)-L-glutamine] | ++ | – | +
0.3 | complex formation observed | < 5000 | Cc1nc2ccc(-c3ccc(N4CCN(CCOCCn5cc(COCCOCCOCCOCCNC(=O)CC[C@H](NC(=O)c6ccc(NCc7cnc8nc(N)nc(O)c8n7)cc6)C(=O)O)nn5)CC4)nc3)cn2c1Cc1ccccc1OC(F)F (racemic) [Compound I-22, rac-(R)-18-(4-(((2-amino-4-hydroxypteridin-6-yl)methyl)amino)benzamido)-1-(1-(2-(2-(4-(5-(3-(2-(difluoromethoxy)benzyl)-2-methylimidazo[1,2-a]pyridin-6-yl)pyridin-2-yl)piperazin-1-yl)ethoxy)ethyl)-1H-1,2,3-triazol-4-yl)-15-oxo-2,5,8,11-tetraoxa-14-azanonadecan-19-oic acid] | + | + | +
0.2 | complex formation observed | < 1000 | Cc1nc2cc(F)c(-c3cnc(OCCCCCn4cc(COCCOCCOCCOCCOCCOCCOCCOCCOCCOCCNC(=O)CC[C@H](NC(=O)c5ccc(NCc6cnc7nc(N)nc(O)c7n6)cc5)C(=O)O)nn4)nc3)nc2c(N[C@H](C)c2cc(C#N)ccc2F)c1Cl [Compound I-20, (S)-36-(4-(((2-amino-4-hydroxypteridin-6-yl)methyl)amino)benzamido)-1-(1-(5-((5-(7-chloro-8-(((R)-1-(5-cyano-2-fluorophenyl)ethyl)amino)-3-fluoro-6-methyl-1,5-naphthyridin-2-yl)pyrimidin-2-yl)oxy)pentyl)-1H-1,2,3-triazol-4-yl)-33-oxo-2,5,8,11,14,17,20,23,26,29-decaoxa-32-azaheptatriacontan-37-oic acid] | + | ++ | +++
